One test has as its target AktK (Homo sapiens, UniProt P31749). Kind of test: Luciferase-coupled chemiluminescence kinase assay (ATP consumption). The class given is biochemical. The settings on record: Table 1; class symbols per key; read-out: AKT-1 IC50. Summed up: (§1)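 Activity is read as ATP depletion: luciferase-luciferin reagent added after a 3 h ambient-temperature kinase reaction, with total ATP use limited to 25-60%. Before ATP addition, 2.5-5 nM kinase and compound were preincubated 30 min in Tris pH 7.5/MgCl2/TX-100/DTT buffer; […].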

In a further test the target is p70S6K (Homo sapiens, UniProt P23443). The test is described as above. It counts as biochemical. The settings on record: Table 1; class symbols per key. Summed up: as §1
p70S6K, sequence (P23443 whole entry): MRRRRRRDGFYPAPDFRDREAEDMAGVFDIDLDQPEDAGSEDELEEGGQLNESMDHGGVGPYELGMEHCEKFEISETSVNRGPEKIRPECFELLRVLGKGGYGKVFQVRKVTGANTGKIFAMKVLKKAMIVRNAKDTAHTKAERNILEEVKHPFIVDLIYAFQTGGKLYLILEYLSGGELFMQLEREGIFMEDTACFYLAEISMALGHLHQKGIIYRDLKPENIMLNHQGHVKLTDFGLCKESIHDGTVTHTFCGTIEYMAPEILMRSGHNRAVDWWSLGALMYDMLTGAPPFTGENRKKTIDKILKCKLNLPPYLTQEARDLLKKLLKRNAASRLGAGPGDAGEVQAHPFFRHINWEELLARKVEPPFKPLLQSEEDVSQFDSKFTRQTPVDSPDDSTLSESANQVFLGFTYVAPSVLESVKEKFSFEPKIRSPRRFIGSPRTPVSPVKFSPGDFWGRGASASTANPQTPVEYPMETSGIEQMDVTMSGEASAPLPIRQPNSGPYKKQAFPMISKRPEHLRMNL

The values below come from patent publication US8076338B2, “Kinase modulators and methods of use” (Exelixis, Inc., priority 2004, dated 2011).

Broadly, the IC50 is the concentration at which inhibition is half-maximal.

AktK, sequence (P31749 whole entry): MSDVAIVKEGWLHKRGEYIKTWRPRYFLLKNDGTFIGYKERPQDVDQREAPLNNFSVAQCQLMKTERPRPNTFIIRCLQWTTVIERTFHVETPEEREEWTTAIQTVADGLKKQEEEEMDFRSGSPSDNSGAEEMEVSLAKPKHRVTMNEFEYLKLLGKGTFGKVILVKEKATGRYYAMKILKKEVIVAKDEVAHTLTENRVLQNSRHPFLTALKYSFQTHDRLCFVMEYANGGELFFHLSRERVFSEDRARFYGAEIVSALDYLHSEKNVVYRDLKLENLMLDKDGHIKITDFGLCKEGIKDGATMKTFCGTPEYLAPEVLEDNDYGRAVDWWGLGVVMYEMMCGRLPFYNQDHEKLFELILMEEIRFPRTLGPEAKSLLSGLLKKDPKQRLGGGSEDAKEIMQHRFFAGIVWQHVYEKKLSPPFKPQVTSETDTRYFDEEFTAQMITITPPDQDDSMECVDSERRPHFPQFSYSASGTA

For `Brc1n[nH]c2ncnc(N3CCN(c4ccccc4)CC3)c12` [Entry 152, 3-bromo-4-(4-phenylpiperazin-1-yl)-1H-pyrazolo[3,4-d]pyrimidine], the values for the IC50 on AktK and against p70S6K were ≥ 10000 nM and < 100 nM, respectively.

With `Fc1ccc(N2CCN(c3ncnc4[nH]nc(Br)c34)CC2)cc1` [Entry 153, 3-bromo-4-[4-(4-fluorophenyl)piperazin-1-yl]-1H-pyrazolo[3,4-d]pyrimidine], the half-inhibitory concentration (IC50) on AktK was ≥ 10000 nM; at p70S6K, 100 to 1000 nM.

As for `Clc1ccc(N2CCN(c3ncnc4[nH]nc(Br)c34)CC2)cc1` [Entry 154, 3-bromo-4-[4-(4-chlorophenyl)piperazin-1-yl]-1H-pyrazolo[3,4-d]pyrimidine], the IC50 at AktK was ≥ 10000 nM; against p70S6K it was 100 to 1000 nM.

Turning to `FC(F)(F)c1cccc(N2CCN(c3ncnc4[nH]nc(Br)c34)CC2)c1` [Entry 155, 3-bromo-4-{4-[3-(trifluoromethyl)phenyl]piperazin-1-yl}-1H-pyrazolo[3,4-d]pyrimidine], the IC50 was ≥ 10000 nM at AktK and < 100 nM against p70S6K.

With `Brc1ccc(N2CCN(c3ncnc4[nH]nc(Br)c34)CC2)cc1` [Entry 157, 3-bromo-4-[4-(4-bromophenyl)piperazin-1-yl]-1H-pyrazolo[3,4-d]pyrimidine], the half-inhibitory concentration (IC50) was ≥ 10000 nM at AktK and 100 to 1000 nM against p70S6K.

Consider `Cc1cccc(N2CCN(c3ncnc4[nH]nc(Br)c34)CC2C)c1` (stereo not shown) [Entry 158, 3-bromo-4-[3-methyl-4-(3-methylphenyl)piperazin-1-yl]-1H-pyrazolo[3,4-d]pyrimidine], for which the figures for the IC50 on AktK and against p70S6K were 1000 to 10000 nM and < 100 nM, respectively.

`Cc1c(Br)cc(Cl)cc1N1CCN(c2nc(N)nc3[nH]ncc23)CC1` [Entry 159, 4-[4-(3-bromo-5-chloro-2-methylphenyl)piperazin-1-yl]-1H-pyrazolo[3,4-d]pyrimidin-6-amine]: the IC50 was ≥ 10000 nM on AktK and 1000 to 10000 nM against p70S6K.

Turning to `Cc1c(OCCN2CCCC2)cc(Cl)cc1N1CCN(c2ncnc3[nH]nc(C4CC4)c23)CC1` [Entry 160, 4-(4-{5-chloro-2-methyl-3-[(2-pyrrolidin-1-ylethyl)oxy]phenyl}piperazin-1-yl)-3-cyclopropyl-1H-pyrazolo[3,4-d]pyrimidine], the IC50 at AktK was 1000 to 10000 nM; on p70S6K, < 100 nM.

As for `Cc1c(NCCN2CCCC2)cc(Cl)cc1N1CCN(c2ncnc3[nH]nc(C4CC4)c23)CC1` [Entry 161, 5-chloro-3-[4-(3-cyclopropyl-1H-pyrazolo[3,4-d]pyrimidin-4-yl)piperazin-1-yl]-2-methyl-N-(2-pyrrolidin-1-ylethyl)aniline], the IC50 was 100 to 1000 nM at AktK and < 100 nM against p70S6K.

For the molecule `Cc1c(NCCN2CCCC2)cc(Cl)cc1N1CCN(c2ncnc3[nH]nc(CC(C)C)c23)CC1` [Entry 162, 5-chloro-2-methyl-3-{4-[3-(2-methylpropyl)-1H-pyrazolo[3,4-d]pyrimidin-4-yl]piperazin-1-yl}-N-(2-pyrrolidin-1-ylethyl)aniline], the 50% inhibitory concentration (IC50) at AktK is 100 to 1000 nM; against p70S6K it was < 100 nM.

On to `Cc1c(OCCN2CCCC2)cc(Cl)cc1N1CCN(c2ncnc3[nH]nc(CC(C)C)c23)CC1` [Entry 163, 4-(4-{5-chloro-2-methyl-3-[(2-pyrrolidin-1-ylethyl)oxy]phenyl}piperazin-1-yl)-3-(2-methylpropyl)-1H-pyrazolo[3,4-d]pyrimidine], for which the concentration for half-maximal inhibition (IC50) on AktK is 1000 to 10000 nM; against p70S6K, < 100 nM.

On to `Cc1ccc(Cl)cc1N1CCN(c2ncnc3[nH]nc(Br)c23)C[C@@H]1C` [Entry 164, 3-bromo-4-[(3S)-4-(5-chloro-2-methylphenyl)-3-methylpiperazin-1-yl]-1H-pyrazolo[3,4-d]pyrimidine], for which the IC50 at AktK is 100 to 1000 nM; against p70S6K, < 100 nM.

On to `CCc1n[nH]c2ncnc(N3CCN(c4cc(Br)cc(N)c4C)CC3)c12` [Entry 165, 5-bromo-3-[4-(3-ethyl-1H-pyrazolo[3,4-d]pyrimidin-4-yl)piperazin-1-yl]-2-methylaniline], for which the IC50 at AktK was 100 to 1000 nM; at p70S6K, < 100 nM.

With `O=C(COc1cccc(N2CCN(c3ncnc4[nH]nc(Br)c34)CC2)c1)NC1CC1` [Entry 166, 2-({3-[4-(3-bromo-1H-pyrazolo[3,4-d]pyrimidin-4-yl)piperazin-1-yl]phenyl}oxy)-N-cyclopropylacetamide], the figures for the 50% inhibitory concentration (IC50) at AktK and against p70S6K were 1000 to 10000 nM and < 100 nM, respectively.

`Brc1n[nH]c2ncnc(N3CCN(c4nccnc4OCCN4CCCCC4)CC3)c12` [Entry 167, 3-bromo-4-(4-{3-[(2-piperidin-1-ylethyl)oxy]pyrazin-2-yl}piperazin-1-yl)-1H-pyrazolo[3,4-d]pyrimidine]: the values for the concentration for half-maximal inhibition (IC50) at AktK and against p70S6K were 1000 to 10000 nM and 100 to 1000 nM, respectively.

With `CCc1n[nH]c2ncnc(N3CCN(c4ncnc5cc(OC)c(OC)cc45)CC3)c12` [Entry 169, 4-[4-(3-ethyl-1H-pyrazolo[3,4-d]pyrimidin-4-yl)piperazin-1-yl]-6,7-bis(methyloxy)quinazoline], the half-maximal inhibitory concentration (IC50) on AktK was ≥ 10000 nM; against p70S6K, 1000 to 10000 nM.

Take `CCc1n[nH]c2ncnc(N3CCN(c4cc(Cl)cc(OCCN(CC)CC)c4)CC3)c12` [Entry 170, 2-({3-chloro-5-[4-(3-ethyl-1H-pyrazolo[3,4-d]pyrimidin-4-yl)piperazin-1-yl]phenyl}oxy)-N,N-diethylethanamine]: the figures for the IC50 at AktK and on p70S6K were ≥ 10000 nM and 100 to 1000 nM, respectively.

Consider `CCc1n[nH]c2ncnc(N3CCN(c4cc(C(F)(F)F)ccc4Cl)CC3)c12` [Entry 171, 4-{4-[2-chloro-5-(trifluoromethyl)phenyl]piperazin-1-yl}-3-ethyl-1H-pyrazolo[3,4-d]pyrimidine], for which the figures for the IC50 at AktK and at p70S6K were 1000 to 10000 nM and < 100 nM, respectively.

For the molecule `CCc1n[nH]c2ncnc(N3CCN(c4cc(OCC(C)C)cc(NCCN5CCCC5)c4C)CC3)c12` [Entry 172, 3-[4-(3-ethyl-1H-pyrazolo[3,4-d]pyrimidin-4-yl)piperazin-1-yl]-2-methyl-5-[(2-methyl-propyl)oxy]-N-(2-pyrrolidin-1-ylethyl)aniline], the 50% inhibitory concentration (IC50) at AktK and against p70S6K was < 100 nM in each case.

On to `CCN(CC)CCCOc1nc(Cl)c(C)c(N2CCN(c3ncnc4[nH]nc(Br)c34)CC2)n1` [Entry 173, 3-({4-[4-(3-bromo-1H-pyrazolo[3,4-d]pyrimidin-4-yl)piperazin-1-yl]-6-chloro-5-methylpyrimidin-2-yl}oxy)-N,N-diethylpropan-1-amine], for which the values for the IC50 at AktK and on p70S6K were 1000 to 10000 nM and 100 to 1000 nM, respectively.

Consider `CCc1n[nH]c2ncnc(N3CCN(c4cc(OCc5ccccc5)cc(NCCN5CCCC5)c4C)CC3)c12` [Entry 174, 3-[4-(3-ethyl-1H-pyrazolo[3,4-d]pyrimidin-4-yl)piperazin-1-yl]-2-methyl-5-[(phenylmethyl)oxy]-N-(2-pyrrolidin-1-ylethyl)aniline], for which the results for the IC50 on AktK and at p70S6K were 100 to 1000 nM and < 100 nM, respectively.

For `Cc1ccc(Cl)cc1N1CCN(c2ncnc3[nH]nc(Br)c23)C[C@H]1C` [Entry 176, 3-bromo-4-[(3R)-4-(5-chloro-2-methylphenyl)-3-methylpiperazin-1-yl]-1H-pyrazolo[3,4-d]pyrimidine], the IC50 is ≥ 10000 nM on AktK and 100 to 1000 nM on p70S6K.

With `Cc1ccc(C(=O)Nc2ccccc2)cc1N1CCN(c2ncnc3[nH]nc(Br)c23)C[C@@H]1C` [Entry 177, 3-[(2S)-4-(3-bromo-1H-pyrazolo[3,4-d]pyrimidin-4-yl)-2-methylpiperazin-1-yl]-4-methyl-N-phenylbenzamide], the IC50 at AktK is 100 to 1000 nM; on p70S6K, < 100 nM.
